This is an account of results in publication PMC8518794 (2021).

The structures appear in SMILES notation.

For assay [1], the system named is pApU (poly rA–poly rU; polyAU) (RNA, polymer) A/U. The assay can be described thus: UV thermal denaturation. The following applies: Na+ (sodium cacodylate); pH 7; r[compound]/[polynucleotide] = 0.3; error ±0.5 °C; per base.
Assay [2] has the same test system. The assay can be described thus: fluorimetric titration, Scatchard / McGhee-von Hippel. The following applies: Na+ (sodium cacodylate); pH 7; sodium cacodylate buffer; r fixed at 0.25; compound 1×10^-7 M; per base.
For assay [3] the test system is unchanged. The assay can be described thus: fluorimetric titration. The following applies: Na+ (sodium cacodylate); pH 7; compound 1×10^-7 M; negligible emission change.

Take `Cc1cc(C)c(B(c2c(C)cc(-c3ccc(-c4ccc(-c5cc(C)c(B(c6c(C)cc([N+](C)(C)C)cc6C)c6c(C)cc([N+](C)(C)C)cc6C)c(C)c5)s4)s3)cc2C)c2c(C)cc([N+](C)(C)C)cc2C)c(C)c1`: the ΔTm (in general, the shift of the melting midpoint relative to a reference) in assay [1] was 5.5 °C. Further, the “log Ks” value in assay [2] was found to be 7.5.

Consider `Cc1cc(C)c(B(c2c(C)cc(C)cc2C)c2c(C)cc(-c3ccc(-c4ccc(-c5cc(C)c(B(c6c(C)cc([N+](C)(C)C)cc6C)c6c(C)cc([N+](C)(C)C)cc6C)c(C)c5)s4)s3)cc2C)c(C)c1`, for which the ΔTm in assay [1] came to 11.1 °C. The “log Ks” value in assay [2] was 7.0.

With `Cc1cc(C)c(B(c2c(C)cc(C)cc2C)c2c(C)cc(-c3ccc(-c4ccc(-c5cc(C)c(B(c6c(C)cc(C)cc6C)c6c(C)cc([N+](C)(C)C)cc6C)c(C)c5)s4)s3)cc2C)c(C)c1`, the ΔTm in assay [1] amounted to 0 °C. In assay [3], the binding result is reported as “no”.

Regarding `Cc1cc(C)c(B(c2c(C)cc(-c3ccc(-c4ccc(-c5cc(C)c(B(c6c(C)cc(C)cc6C)c6c(C)cc([N+](C)(C)C)cc6C)c(C)c5)s4)s3)cc2C)c2c(C)cc([N+](C)(C)C)cc2C)c(C)c1`, in assay [1], the ΔTm was 13.0 °C. Further, the “log Ks” value in assay [2] is given as 7.8.
